Results from patent publication US7704995B2 (Exelixis, Inc., priority 2003, dated 2010).

Each compound was assayed against T1, Chk1 (Homo sapiens, UniProt O14757) (assay: Chk1 kinase assay: incorporation of γ-33P ATP into immobilized myelin basic protein). Conditions: Table 11; Chk1 only; read-out: Chk1 IC50.
T1 construct: purchased Upstate Biotechnology
T1 sequence (O14757 1-476): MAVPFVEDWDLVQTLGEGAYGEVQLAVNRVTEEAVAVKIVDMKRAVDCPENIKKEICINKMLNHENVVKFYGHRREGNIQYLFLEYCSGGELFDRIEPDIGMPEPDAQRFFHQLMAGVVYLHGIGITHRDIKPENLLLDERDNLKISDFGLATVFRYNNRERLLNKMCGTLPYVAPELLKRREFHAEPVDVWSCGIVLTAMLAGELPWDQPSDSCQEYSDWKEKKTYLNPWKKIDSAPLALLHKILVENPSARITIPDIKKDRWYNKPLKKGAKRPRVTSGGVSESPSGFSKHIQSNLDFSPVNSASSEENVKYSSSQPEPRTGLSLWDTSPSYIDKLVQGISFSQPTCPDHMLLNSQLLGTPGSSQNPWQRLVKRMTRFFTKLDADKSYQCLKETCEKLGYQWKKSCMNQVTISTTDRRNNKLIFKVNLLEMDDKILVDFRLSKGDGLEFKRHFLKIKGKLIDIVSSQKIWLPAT
Type: biochemical
Outline: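 Incorporation of γ-33P into myelin basic protein coated on plates was scintillation-counted after 1 h at room temperature, duplicate points. Unlabeled ATP was 10 μM with 10 nM Chk1, 30 μM with 20 nM Chk2; buffer Hepes pH 7.6, MgCl2, DTT, 1% DMSO. Output IC50, optionally converted to Ki.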

SMILES	IC50 [nM]
CNC(=O)c1nc(-c2cnc3ccccc3c2)cnc1N [Example 503, 3-amino-N-methyl-6-quinolin-3-ylpyrazine-2-carboxamide]	1000 to 10000
CNC(=O)c1nc(-c2cccc(CN[C@@H]3CCC[C@H]3OCc3ccccc3)c2)cnc1N [Example 506, 3-amino-N-methyl-6-{3-[({(1R,2R)-2-[(phenylmethyl)oxy]cyclopentyl}amino)methyl]phenyl}pyrazine-2-carboxamide]	50 to 1000
CNC(=O)c1nc(-c2cccc(CNC3COc4ccccc43)c2)cnc1N (stereo not drawn) [Example 507, 3-amino-6-{3-[(2,3-dihydro-1-benzofuran-3-ylamino)methyl]phenyl}-N-methylpyrazine-2-carboxamide]	50 to 1000
CNC(=O)c1nc(-c2cccc(CNC3CCc4cc(OCC#N)ccc43)c2)cnc1N (stereo not drawn) [Example 508, 3-amino-6-{3-[({5-[(cyanomethyl)oxy]-2,3-dihydro-1H-inden-1-yl}amino)methyl]phenyl}-N-methylpyrazine-2-carboxamide]	50 to 1000
CNC(=O)c1cc(-c2cccc(CN[C@H]3CCc4ccccc43)c2)cnc1N [Example 509, 2-amino-5-(3-{[(1S)-2,3-dihydro-1H-inden-1-ylamino]methyl}phenyl)-N-methylpyridine-3-carboxamide]	50 to 1000
CNC(=O)c1nc(-c2cccc(CNC3CCc4cc(-c5ccc(C)cc5)ccc43)c2)cnc1N (stereo not drawn) [Example 510, 3-amino-N-methyl-6-[3-({[5-(4-methylphenyl)-2,3-dihydro-1H-inden-1-yl]amino}methyl)phenyl]pyrazine-2-carboxamide]	50 to 1000
CNC(=O)c1nc(-c2cccc(CNC(CN(C)C)c3ccccc3)c2)cnc1N (stereo not drawn) [Example 511, 3-amino-6-[3-({[2-(dimethylamino)-1-phenylethyl]amino}methyl)phenyl]-N-methylpyrazine-2-carboxamide]	50 to 1000
CNC(=O)c1nc(-c2cccc(CNC3CCc4cc(-n5cncn5)ccc43)c2)cnc1N (stereo not drawn) [Example 512, 3-amino-N-methyl-6-[3-({[5-(1H-1,2,4-triazol-1-yl)-2,3-dihydro-1H-inden-1-yl]amino}methyl)phenyl]pyrazine-2-carboxamide]	50 to 1000
CNC(=O)c1nc(-c2cccc(CNC3CCc4cc(O)ccc43)c2)cnc1N (stereo not drawn) [Example 513, 3-amino-6-(3-{[(5-hydroxy-2,3-dihydro-1H-inden-1-yl)amino]methyl}phenyl)-N-methylpyrazine-2-carboxamide]	50 to 1000
CNC(=O)c1nc(-c2cccc(CNC3CCc4c(OCCN5CCOCC5)cccc43)c2)cnc1N (stereo not drawn) [Example 514, 3-amino-N-methyl-6-{3-[({4-[(2-morpholin-4-ylethyl)oxy]-2,3-dihydro-1H-inden-1-yl}amino)methyl]phenyl}pyrazine-2-carboxamide]	50 to 1000
CNC(=O)c1nc(-c2ccc3ccnc(NCc4ccccc4)c3c2)cnc1N [Example 516, 3-amino-N-methyl-6-{1-[(phenylmethyl)amino]isoquinolin-7-yl}pyrazine-2-carboxamide]	1000 to 10000
CNC(=O)c1nc(-c2cccc(CNC(CN3CCOCC3)c3ccccc3)c2)cnc1N (stereo not drawn) [Example 517, 3-amino-N-methyl-6-(3-{[(2-morpholin-4-yl-1-phenylethyl)amino]methyl}phenyl)pyrazine-2-carboxamide]	1000 to 10000
CNC(=O)c1nc(-c2cccc(CNC(CN3CCCC3)c3ccccc3)c2)cnc1N (stereo not drawn) [Example 518, 3-amino-N-methyl-6-(3-{[(1-phenyl-2-pyrrolidin-1-ylethyl)amino]methyl}phenyl)pyrazine-2-carboxamide]	50 to 1000
CNC(=O)c1cc(-c2cccc(CNC3CCc4ccc(Br)cc43)c2)cnc1N (stereo not drawn) [Example 519, 2-amino-5-(3-{[(6-bromo-2,3-dihydro-1H-inden-1-yl)amino]methyl}phenyl)-N-methylpyridine-3-carboxamide]	50 to 1000
CNC(=O)c1cc(-c2cccc(CNC3CCc4c(F)cc(F)cc43)c2)cnc1N (stereo not drawn) [Example 520, 2-amino-5-(3-{[(4,6-difluoro-2,3-dihydro-1H-inden-1-yl)amino]methyl}phenyl)-N-methylpyridine-3-carboxamide]	50 to 1000
CNC(=O)c1cc(-c2cccc(CNC3CCc4c(F)ccc(Br)c43)c2)cnc1N (stereo not drawn) [Example 521, 2-amino-5-(3-{[(7-bromo-4-fluoro-2,3-dihydro-1H-inden-1-yl)amino]methyl}phenyl)-N-methylpyridine-3-carboxamide]	1000 to 10000
CNC(=O)c1cc(-c2cccc(CNC3CCc4c(Cl)cccc43)c2)cnc1N (stereo not drawn) [Example 522, 2-amino-5-(3-{[(4-chloro-2,3-dihydro-1H-inden-1-yl)amino]methyl}phenyl)-N-methylpyridine-3-carboxamide]	50 to 1000
CNC(=O)c1cc(-c2cccc(CNC3CCc4cc(F)c(F)cc43)c2)cnc1N (stereo not drawn) [Example 523, 2-amino-5-(3-{[(5,6-difluoro-2,3-dihydro-1H-inden-1-yl)amino]methyl}phenyl)-N-methylpyridine-3-carboxamide]	50 to 1000

Next, values leading:

IC50 [nM]	SMILES
50 to 1000	CNC(=O)c1nc(-c2cccc(CNC3CCc4cc(-c5ccccc5)ccc43)c2)cnc1N (stereo not drawn) [Example 491, 3-amino-N-methyl-6-(3-{[(5-phenyl-2,3-dihydro-1H-inden-1-yl)amino]methyl}phenyl)pyrazine-2-carboxamide]
< 50	CNC(=O)c1nc(-c2cccc(CNC3CCc4c(Br)cccc43)c2)cnc1N (stereo not drawn) [Example 492, 3-amino-6-(3-{[(4-bromo-2,3-dihydro-1H-inden-1-yl)amino]methyl}phenyl)-N-methylpyrazine-2-carboxamide]
< 50	CNC(=O)c1nc(-c2cccc(CNC3CCc4c(-c5ccccc5)cccc43)c2)cnc1N (stereo not drawn) [Example 493, 3-amino-N-methyl-6-(3-{[(4-phenyl-2,3-dihydro-1H-inden-1-yl)amino]methyl}phenyl)pyrazine-2-carboxamide]
< 50	CNC(=O)c1nc(-c2cccc(CNC3CCc4c(-c5cccs5)cccc43)c2)cnc1N (stereo not drawn) [Example 494, 3-amino-N-methyl-6-[3-({[4-(2-thienyl)-2,3-dihydro-1H-inden-1-yl]amino}methyl)phenyl]pyrazine-2-carboxamide]
50 to 1000	CNC(=O)c1nc(-c2cccc(CNC3CCc4ccc(-c5cccs5)cc43)c2)cnc1N (stereo not drawn) [Example 495, 3-amino-N-methyl-6-[3-({[6-(2-thienyl)-2,3-dihydro-1H-inden-1-yl]amino}methyl)phenyl]pyrazine-2-carboxamide]
< 50	CNC(=O)c1nc(-c2cccc(CNC3CCc4cc(-c5cc(C)cs5)ccc43)c2)cnc1N (stereo not drawn) [Example 496, 3-amino-N-methyl-6-[3-({[5-(4-methyl-2-thienyl)-2,3-dihydro-1H-inden-1-yl]amino}methyl)phenyl]pyrazine-2-carboxamide]
50 to 1000	CNC(=O)c1nc(-c2cccc(CN[C@@H]3CCc4cc(-c5ccccc5)ccc4C3)c2)cnc1N [Example 497, 3-amino-N-methyl-6-[3-({[(2R)-6-phenyl-1,2,3,4-tetrahydronaphthalen-2-yl]amino}methyl)phenyl]pyrazine-2-carboxamide]
50 to 1000	CNC(=O)c1nc(-c2ccc3ccccc3c2)cnc1N [Example 498, 3-amino-N-methyl-6-naphthalen-2-ylpyrazine-2-carboxamide]
50 to 1000	CNC(=O)c1nc(-c2cccc(CN[C@H]3CCC[C@@H]3OCc3ccccc3)c2)cnc1N [Example 499, 3-amino-N-methyl-6-{3-[({(1S,2S)-2-[(phenylmethyl)oxy]cyclopentyl}amino)methyl]phenyl}pyrazine-2-carboxamide]
50 to 1000	CNC(=O)c1nc(-c2cccc(CNC3CCCC3)c2)cnc1N [Example 500, 3-amino-6-{3-[(cyclopentylamino)methyl]phenyl}-N-methylpyrazine-2-carboxamide]
50 to 1000	CNC(=O)c1nc(-c2cccc(CNC3CCc4ccc(Br)cc43)c2)cnc1N (stereo not drawn) [Example 501, 3-amino-6-(3-{[(6-bromo-2,3-dihydro-1H-inden-1-yl)amino]methyl}phenyl)-N-methylpyrazine-2-carboxamide]
50 to 1000	CNC(=O)c1nc(-c2cccc(CNC3CCc4cccc(F)c43)c2)cnc1N (stereo not drawn) [Example 502, 3-amino-6-(3-{[(7-fluoro-2,3-dihydro-1H-inden-1-yl)amino]methyl}phenyl)-N-methylpyrazine-2-carboxamide]
50 to 1000	CNC(=O)c1nc(-c2cccc(Cn3ccnc3)c2)cnc1N [Example 504, 3-amino-6-[3-(1H-imidazol-1-ylmethyl)phenyl]-N-methylpyrazine-2-carboxamide]
50 to 1000	CNC(=O)c1nc(-c2cccc(CNC3CCc4cc(OCCN5CCOCC5)ccc43)c2)cnc1N (stereo not drawn) [Example 505, 3-amino-N-methyl-6-{3-[({5-[(2-morpholin-4-ylethyl)oxy]-2,3-dihydro-1H-inden-1-yl}amino)methyl]phenyl}pyrazine-2-carboxamide]
< 50	CNC(=O)c1nc(-c2cccc(CNC3CCc4c(O)cccc43)c2)cnc1N (stereo not drawn) [Example 515, 3-amino-6-(3-{[(4-hydroxy-2,3-dihydro-1H-inden-1-yl)amino]methyl}phenyl)-N-methylpyrazine-2-carboxamide]
